Where a name gives a salt, the structure may show the parent alone.

A short description of data set [1]: Triton test (hypocholesterolemic action). As to conditions: 100 mg/kg oral, rat, 18 hours after Triton. The class given is in vivo, rat. On the procedure: The intravenous injection of Triton W-R 1339 (an alkylaryl polyetheralcohol sold by Rohm and Haas) enables one to artifically increase, in the rat, certain lipidic fractions of serum and thus to evalute the hypocholesterolemic action of the compounds of the invention. […]
Eighteen hours later a blood sample is taken and the β-lipoproteins, the free cholesterol and the cholesterol are determined.
This test, which enables one to evaluate the hypocholesterolemic action of the derivatives to be tested, on serum levels of certain lipid fractions, has shown the remarkable effect of the compounds according to the invention.

A short description of data set [2]: LD50/24 h by the method of Miller & Tainter, intravenous route, mice. As to conditions: mouse, in vivo, read-out: LD50 /24 h/kg of body weight.
A short description of data set [3]: Propyl-thiouracil test (hypocholesterolemic action). The class given is in vivo, rats. The following applies: 100 mg/kg oral, rats, 11th day; for Free cholesterol: control 0.20 g/l; for Total cholesterol: control 0.86 g/l. The method, then: a. Propyl-thiouracil test (RANNEY et Coll. J. Pharmacol. Exper. Therap. 1963, 142, 132-136)
The administration of propyl-thiouracil to adult rats renders them hypercholesterolemic; in effect, the plasmatic cholesterol rate has increased by about 15%. The testing is carried out on two groups of rats, the control group receiving the propyl-thiouracil only whilst the treated group also receives 100 mg/kg of the compounds to be tested, by the oral route.
On the 11th day of the experiment, the blood samples are taken and the β-lipoproteins, the free cholesterol and the total cholesterol measured.
a. Propyl-thiouracil test (Ranney et Coll. J. Pharmacol. Exper. Therap. 1963, 142, 132-136)
This test has shown the clearly favourable action of the derivatives according to the invention, at a dose of […].

Take `CCN(CC)CC=C1CN=C(N2CCN(C)CC2)S1` [Derivative No. 12, 5-(2-diethylaminoethylidene) 2-(4-methyl 1-piperazinyl) Δ^2-thiazoline tetrahydrochloride]: in data set [1], the “reduction of free cholesterol and of total cholesterol” value is reported as ~26%. In addition, the LD50 at 24 h in data set [2] stood at 90 mg/kg. In addition, in data set [3], the “Free cholesterol” value was 0.15 g/L and the “Total cholesterol” value came out at 0.61 g/L.

On to `CCN(CC)CC=C1CN=C(NC2CCCCC2)S1` [Derivative No. 1, 2-cyclohexylamino 5-β-diethylaminoethylidene Δ^2-thiazoline], for which, in data set [1], the “reduction of free cholesterol and of total cholesterol” value was ~28%. In data set [2], the LD50 at 24 h came out at 42 mg/kg. Further, in data set [3], the “Free cholesterol” value was 0.14 g/L and the “Total cholesterol” value is 0.60 g/L.

For `CCN(CC)CC=C1CN=C(NC)S1` [Derivative No. 21, 5-(β-diethylaminoethylidene) 2-methylamino Δ^2-thiazoline oxalate], the LD50 at 24 h in data set [2] was determined as 92 mg/kg.

Source of the values: patent publication US4018786A, “2-Aminothiazolines and a process for preparation thereof” (Centre d'Etudes pour l'Industrie Pharmaceutique, priority 1974, dated 1977).
